Results: PubChem BioAssay AID2060332 (Molecular Pharmacology Branch, DTP, NCI, 2025)
“And” between values parts separate entries of the source, which are not always exact repeats. Equal values may be shown once.

Test system: LG0567-F671-PDC multi-cell spheroid viability
Experiment: Anticancer human tumor LG0567-F671-PDC patient-derived lung adenocarcinoma cell line growth inhibition [IpAb]
Conditions: for viability, T/C: stronger effect = lower value
In short: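 Combinations with ipatasertib or abemaciclib were tested on tumour spheroids holding HUVEC (25%) and MSC (15%) alongside 60% malignant cells. Top concentration was at or near clinical Cmax (10 microM if undefined), descending in half-log steps.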

[1] = curve of first compound, second compound 0.01 µM
[2] = curve of first compound, second compound 0.0316 µM
[3] = curve of first compound, second compound 0.1 µM
[4] = curve of first compound, second compound 0.316 µM
[5] = curve of first compound, second compound 1 µM
[6] = second compound 0.01 µM, first compound 0.0316 µM
[7] = second compound 0.01 µM, first compound 0.1 µM
[8] = second compound 0.01 µM, first compound 0.316 µM
[9] = second compound 0.01 µM, first compound 1 µM
[10] = second compound 0.01 µM, first compound 3.16 µM
[11] = second compound 0.01 µM, first compound 10 µM
[12] = second compound 0.0316 µM, first compound 0.0316 µM
[13] = second compound 0.0316 µM, first compound 0.1 µM
[14] = second compound 0.0316 µM, first compound 0.316 µM
[15] = second compound 0.0316 µM, first compound 1 µM
[16] = second compound 0.0316 µM, first compound 3.16 µM
[17] = second compound 0.0316 µM, first compound 10 µM
[18] = second compound 0.1 µM, first compound 0.0316 µM
[19] = second compound 0.1 µM, first compound 0.1 µM
[20] = second compound 0.1 µM, first compound 0.316 µM
[21] = second compound 0.1 µM, first compound 1 µM
[22] = second compound 0.1 µM, first compound 3.16 µM
[23] = second compound 0.1 µM, first compound 10 µM
[24] = second compound 0.316 µM, first compound 0.0316 µM
[25] = second compound 0.316 µM, first compound 0.1 µM
[26] = second compound 0.316 µM, first compound 0.316 µM
[27] = second compound 0.316 µM, first compound 1 µM
[28] = second compound 0.316 µM, first compound 3.16 µM
[29] = second compound 0.316 µM, first compound 10 µM
[30] = second compound 1 µM, first compound 0.0316 µM
[31] = second compound 1 µM, first compound 0.1 µM
[32] = second compound 1 µM, first compound 0.316 µM
[33] = second compound 1 µM, first compound 1 µM
[34] = second compound 1 µM, first compound 3.16 µM
[35] = second compound 1 µM, first compound 10 µM
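Further: viability read after 7 days of drug exposure.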
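Wherever viability, T/C is given: 100% = DMSO vehicle control luminescence.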

`C=CC(=O)N1CCN(c2nc(=O)n(-c3c(C)ccnc3C(C)C)c3nc(-c4c(O)cccc4F)c(F)cc23)C(C)C1` (centres undefined) + CCN1CCN(Cc2ccc(Nc3ncc(F)c(-c4cc(F)c5nc(C)n(C(C)C)c5c4)n3)nc2)CC1 showed an IC50 [1] of under 31.6 nM, an IC50 [2] of under 31.6 nM and an IC50 [3] of under 31.6 nM. For the same compound, the IC50 [4] was under 31.6 nM, the IC50 [5] was under 31.6 nM and the viability, T/C [6] was 21.1%. For the same compound, the viability, T/C [7] was 19.5%, the viability, T/C [8] was 14.9% and the viability, T/C [9] was 19.8%. For the same compound, the viability, T/C [10] was 17.1%, the viability, T/C [11] was 17.5% and the viability, T/C [12] was 18.4%. The viability, T/C [13] was 14.3%, the viability, T/C [14] was 15.7% and the viability, T/C [15] was 15.9%. For the same compound, the viability, T/C [16] was 13.1%, the viability, T/C [17] was 14% and the viability, T/C [18] was 15.5%. It also gave a viability, T/C [19] of 15.8%, a viability, T/C [20] of 16.6% and a viability, T/C [21] of 13.2%. For the same compound, the viability, T/C [22] was 13.8%, the viability, T/C [23] was 13.9% and the viability, T/C [24] was 16.2%. For the same compound, the viability, T/C [25] was 18.4%, the viability, T/C [26] was 22.1% and the viability, T/C [27] was 18.2%. For the same compound, the viability, T/C [28] was 16.6%, the viability, T/C [29] was 16% and the viability, T/C [30] was 18.6%. It also gave a viability, T/C [31] of 23%, a viability, T/C [32] of 27.1% and a viability, T/C [33] of 18.9%. The viability, T/C [34] was 25.8% and the viability, T/C [35] was 21.1%.
For `C=CCn1c(=O)c2cnc(Nc3ccc(N4CCN(C)CC4)cc3)nc2n1-c1cccc(C(C)(C)O)n1`, the viability, T/C (compound 0.0316 µM) was 101% and 104%, the viability, T/C (compound 0.1 µM) was 76.4% and 73.2% and the viability, T/C (compound 0.316 µM) was 46.1% and 54.2%. For the same compound, the viability, T/C (compound 1 µM) was 45.3% and 54%, the viability, T/C (compound 3.16 µM) was 37.1% and 57.6% and the viability, T/C (compound 10 µM) was 30.6% and 41.5%.
`CCN1CCN(Cc2ccc(Nc3ncc(F)c(-c4cc(F)c5nc(C)n(C(C)C)c5c4)n3)nc2)CC1` showed an IC50 (compound alone, run of 06/01/2021) of over 1000 nM.
With `Cc1nc(NC(=O)N2CCCC2C(N)=O)sc1-c1ccnc(C(C)(C)C(F)(F)F)c1` (centres undefined) the viability, T/C (compound 0.0316 µM) was 85.2%, the viability, T/C (compound 0.1 µM) was 79.3% and 90.2% and the viability, T/C (compound 0.316 µM) was 59.3% and 74%. The viability, T/C (compound 1 µM) was 44.5% and 52.8%, the viability, T/C (compound 3.16 µM) was 66.8% and 49.1% and the viability, T/C (compound 10 µM) was 50.2% and 46.2%. For the same compound, the IC50 (curve of compound) was > 10000 nM and 1800 nM.
`Cn1ncc(Cl)c1-c1cc(C(=O)NC(CN)Cc2cccc(F)c2)sc1Cl` (centres undefined) + CCN1CCN(Cc2ccc(Nc3ncc(F)c(-c4cc(F)c5nc(C)n(C(C)C)c5c4)n3)nc2)CC1 showed an IC50 [1] of 1850 nM, an IC50 [2] of 1190 nM and an IC50 [3] of 470 nM. For the same compound, the IC50 [4] was under 31.6 nM, the IC50 [5] was 226 nM and the viability, T/C [6] was 88.8%. It also gave a viability, T/C [7] of 68%, a viability, T/C [8] of 50.2% and a viability, T/C [9] of 61.4%. The viability, T/C [10] was 49.9%, the viability, T/C [11] was 0.15% and the viability, T/C [12] was 57.7%. For the same compound, the viability, T/C [13] was 53.9%, the viability, T/C [14] was 49.9% and the viability, T/C [15] was 54.2%. It also gave a viability, T/C [16] of 28.6%, a viability, T/C [17] of 0.13% and a viability, T/C [18] of 74.8%. The viability, T/C [19] was 51.4%, the viability, T/C [20] was 52.7% and the viability, T/C [21] was 45.8%. For the same compound, the viability, T/C [22] was 27.6%, the viability, T/C [23] was 0.13% and the viability, T/C [24] was 42.4%. The viability, T/C [25] was 51.4%, the viability, T/C [26] was 57.9% and the viability, T/C [27] was 33%. It also gave a viability, T/C [28] of 30.9%, a viability, T/C [29] of 0.14% and a viability, T/C [30] of 59%. It also gave a viability, T/C [31] of 51.8%, a viability, T/C [32] of 47.2% and a viability, T/C [33] of 37.4%. It also gave a viability, T/C [34] of 30% and a viability, T/C [35] of 0.19%.
